Test results: patent US20120132594A1, “AQUEOUS SOLVENTS FOR HYDROCARBONS AND OTHER HYDROPHOBIC COMPOUNDS” (IMPERIAL INNOVATIONS LIMITED, priority 2009, published 2012)

Assay: Extraction of organic standards from spiked JSC-1 rock with aqueous polysorbate 80 solution, GC-MS
Type: physicochemical
Details: ultrasonication 20 minutes
Procedure: JSC-1, a Martian and lunar analogue (McKay et al. (1993) JSC-1: A new lunar regolith simulant. Lunar and Planetary Institute Conference Abstracts), was spiked with various hydrocarbon compound classes (Table 1 below). All are known to be soluble in organic solvents, and are considered mostly insoluble in water with the exception of atrazine. 1 ml of a mixture of 10.0 ng ml^−1 hydrocarbon standards were spiked on to 1 g of rock, the concentrations of each non-aromatic standard amounted to 10.0 ng g^−1 rock (10 ppb). Terphenyl (an aromatic compound) was used as a second quantitation standard, added just before analysis in order to establish extraction efficiencies for the JSC-1 rock.
1 g samples of spiked JSC-1 rock were placed in test tubes, with 3 ml solvent and the mixture subjected to ultrasonication (20 minutes). The solvent was an aqueous surfactant solution containing polysorbate 80 in various amounts (either 1.5 g/L or 2.5 g/L), as set out in Table 1 below. The surfactant was dissolved either in water that contains 20% methanol (referred to in Table 1 as “w MeOH”) or pure water (“w/o MeOH”). After sonication the mixture was centrifuged (2500 rpm×10 min) and the supernatant pipetted into a test tube. A liquid/liquid extraction was then performed with dichloromethane, the dichloromethane was then blown down via nitrogen to 1 ml ready for further analysis by gas chromatography-mass spectrometry.
The organic constituents of extracts were separated on an Agilent technologies 6890N gas chromatograph. Extracts were dissolved in 1 ml dichloromethane and 1 μl was introduced via splitless injection into a HP-5 (0.25 mm×30 m×[…]) capillary column in a helium carrier gas. The column oven was operated with a temperature programme starting at 50° C. for 1 min followed by a ramp of 5° C. min−1 until 310° C. where the temperature was held for 20 min. Individual compounds were identified by introducing the column effluent into an Agilent technologies 5973 inert mass selective detector operated with a 12 min solvent delay and a scan range of m/z 50-550.
The extraction efficiency is measured as the percentage of the organic compounds that are extracted as compared to the amount originally present in the rock. […] Other variables include temperature and pressure. As can also be seen from Table 1, the optimum recovery appears to take place between about 0.5 an 3 grams per litre of polysorbate 80, which corresponds to 40 to 230 times the cmc of polysorbate 80.

[1] = polysorbate 80 1.5 g/L, with MeOH (water containing 20% methanol)
[2] = polysorbate 80 1.5 g/L, without MeOH (pure water)
[3] = polysorbate 80 2.5 g/L, with MeOH (water containing 20% methanol)
[4] = polysorbate 80 2.5 g/L, without MeOH (pure water)

Extraction efficiency [1] [%] | Extraction efficiency [2] [%] | Extraction efficiency [3] [%] | Extraction efficiency [4] [%] | SMILES
6.11 | 19.71 | 0.58 | 9.11 | CC(C)=CCC/C(C)=C/CC/C(C)=C/CC/C=C(\C)CC/C=C(\C)CCC=C(C)C [Squalene]
4.21 | 14.2 | 0.54 | 0.73 | CCCCCCCCCCCCCCCC [Hexadecane]
0 | 0 | 5.2 | 22.86 | c1ccc2cc3ccccc3cc2c1 [Anthracene]
8.91 | 29.08 | 0.93 | 10.7 | CCC(C)CCCC(C)CCCC(C)CCCC(C)C (stereo not shown) [Phytane]

SMILES | Extraction efficiency [1] [%] | Extraction efficiency [2] [%] | Extraction efficiency [3] [%] | Extraction efficiency [4] [%]
CCNc1nc(Cl)nc(NC(C)C)n1 [Atrazine] | 7.35 | 12.6 | 5.4 | 5.62
c1ccc2c(c1)c1cccc3ccc4cccc2c4c31 [Benzo(e)pyrene] | 2.38 | 0 | 20.33 | 30.55
CC[C@H](/C=C/[C@@H](C)[C@H]1CC[C@H]2[C@@H]3CC=C4C[C@@H](O)CC[C@]4(C)[C@H]3CC[C@]12C)C(C)C [Stigmasterol] | 0 | 0 | 3.06 | 10.88
